In assay [1] the test system is serum growth hormone (GH). Kind of assay: Phase 1 study Part 2: PD, serum GH concentration fasted vs fed. The assay is classed as in vivo, human. The note with it: for serum GH concentration, mean (SD): pre-dose. From the text:
• Part 1: To evaluate PD (GH response) of the new LUM-201 formulation as capsule (test). • Part 2: To measure PD (GH response) to LUM-201 administered as capsule (test) in fasted versus fed state. PD Results (pt 2): Following the administration of LUM-201, the serum GH concentration values increased post dose. At pre-dose, mean (SD) serum GH concentration values were 0.2121 (0.2192) ng/mL in Treatment A and 0.1088 (0.09518) ng/mL in Treatment B. The serum GH concentration value peaked at 22.18 (22.24) ng/mL in Treatment A at 1 h post-dose and 14.10 (13.48) ng/mL in Treatment B at 1.5 h post-dose. The serum GH concentration values in Treatment A were consistently higher compared to Treatment B over time and approached the peak concentration sooner at 1 h post-dose.

In assay [2] the test system is serum growth hormone (GH). Kind of assay: Phase 1 study Part 1: PD, serum GH concentration. The assay is classed as in vivo, human. The following applies: for serum GH concentration, peak, mean (SD): 1 h post-dose; for serum GH concentration, mean (SD): pre-dose. An excerpt: • Part 1: To evaluate PD (GH response) of the new LUM-201 formulation as capsule (test). • Part 2: To measure PD (GH response) to LUM-201 administered as capsule (test) in fasted versus fed state. PD Results (pt 1): Individual serum growth hormone (GH) concentration time data were obtained for each subject and treatment cohort. […] Following the administration of LUM-201, the serum GH concentration values increased post dose as expected. At pre-dose, mean (SD) serum GH concentration values were 0.2970 (0.7404) ng/mL for Treatment A, 0.2052 (0.3174) ng/mL for Treatment B, 0.5303 (1.354) ng/mL for Treatment C, and 0.1454 (0.1981) ng/mL for Treatment D. The serum GH concentration value peaked at 1 h post-dose for all treatment groups. 17.10 (15.07) ng/mL in Treatment A, 16.55 (16.36) ng/mL in Treatment B, 17.30 (17.05) ng/mL in Treatment C, and 18.01 (14.32) ng/mL in Treatment D. The trend of serum GH concentration changes in all 4 treatment groups was similar, except for the serum GH concentration in Treatment A that approached the peak concentration sooner, relative to the other treatments, at 0.5 h post-dose.

[3] abbreviates: Part 1, Treatment A: five 18 mg tablets (90 mg), fasted.
The mark [4] stands for this setting: Part 1, Treatment B: 85.3 mg whole capsule, fasted.
Setting [5] is: Part 1, Treatment C: 85.3 mg capsule contents (dry), fasted.
Where [6] appears, read: Part 1, Treatment D: 85.3 mg capsule contents in banana puree.

As for `CC(C)(N)C(=O)N[C@H](COCc1ccccc1)C(=O)N1CCC2(CC1)CN(S(C)(=O)=O)c1ccccc12` [LUM-201, N-[1(R)-[(1,2-dihydro-1-methanesulfonylspiro[3H-indole-3,4′-piperdin]-yl)carbonyl]-2-(phenylmethyloxy)ethyl]-2-amino-2-methylpropanamide methanesulfonate], the “serum GH concentration, peak, mean (SD)” value in assay [1] (1 h post-dose, Part 2, Treatment A: 85.3 mg capsule, fasted) is 22.18 (22.24) ng/mL; in assay [1] (1.5 h post-dose, Part 2, Treatment B: 85.3 mg capsule after high-fat meal), 14.10 (13.48) ng/mL; in assay [2] (setting [3]), 17.10 (15.07) ng/mL; in assay [2] (setting [4]) it was 16.55 (16.36) ng/mL; in assay [2] (setting [5]), 17.30 (17.05) ng/mL; in assay [2] (setting [6]), 18.01 (14.32) ng/mL. Besides, the “serum GH concentrations 1.5 hours after administration, fasted vs fed” value in assay [1] (Part 2, Treatment A (fasted state) and Treatment B (fed state)) is on record as “comparable”. Further, the “serum GH concentration, mean (SD)” value in assay [1] (Part 2, Treatment A: 85.3 mg capsule, fasted) was 0.2121 (0.2192) ng/mL; in assay [1] (Part 2, Treatment B: 85.3 mg capsule after high-fat meal), 0.1088 (0.09518) ng/mL; in assay [2] (setting [3]), 0.2970 (0.7404) ng/mL; in assay [2] (setting [4]) it was 0.2052 (0.3174) ng/mL; in assay [2] (setting [5]), 0.5303 (1.354) ng/mL; in assay [2] (setting [6]), 0.1454 (0.1981) ng/mL. The “PD parameters, capsule versus tablets” value in assay [2] (Part 1, serum GH and serum IGF-1, 4 treatment groups) is “no observed differences”.

The record behind these values is US20250332149A1, “PIPERIDINE COMPOUNDS AND PHARMACEUTICAL COMPOSITIONS” (Lumos Pharma, Inc., priority 2024, published 2025).
